Test results as given in patent publication US4455312A.
Structures can show the parent of a compound that is named as a salt. Where two headings read alike, the source gives them in different places.

Columns and labels:
[1] = tested on: pyrogenal fever; assay: Antipyretic effect in pyrogenal fever; conditions: rats
Method: Antipyretic effect of 2-(o-carboxyphenylamino)-6H-pyrimido(2,1-b)-quinazolone-6 and its derivatives were investigated in rats suffering from pyrogenal fever. Maximum decrease in the temperature (degrees) was determined.

[2] = Acute toxicity in rabbits (LD50); conditions: rabbit, in vivo, ip, rabbits, intra-abdominal, Van der Waerden
Method: (§1) 2-(o-carboxyphenylamino)-6-H-pyrimido(2,1-b)-quinazolone-6 and its derivatives were tested for acute toxicity.
(§2) Acute toxicity of 2-(o-carboxyphenylamino)-6H-pyrimido(2,1-b)-quinazolone-6and its derivatives was determined in intra-abdominal and peroral administration; for cats in peroral administration. […] The statistical analysis of obtained data was carried out in accordance with the method of Litchfield, Wilcockson and Van der Waerden.

[3] = Acute toxicity in cats (LD50); conditions: cat, in vivo, po
Method: as §1, §2

[4] = in vivo
Method: as §1, §2

[5] = tested on: threshold of pain sensitivity in contact-heat stimulation
[6] = tested on: formalin edema of a foot in the rat; conditions: for other symptoms of inflammation (hyperemia, painfulness) and formation of necrotic foci: formalin inflammation
Method: (§3) The growth of foot endema in the rat was registered in dynamics after each hour from the moment of subplantar administration of a stimulus during 5 hours. Percentage of inhibition of the foor emeda in the rat was calculated from the following formula: [formula] where
(§4) Vk is the volume of a control edematic foot minus the initial volume of the same foot prior to edema;
(§5) Vo is the volume of the tested edematic foot minus the initial volume of the same foot prior to edema.

[7] = tested on: cotton granuloma; assay: whole plant or invertebrate
Excerpt: The term "cotton granuloma" means hereinafter the formation of a granular-fibrous tissue around cotton balls implanted into experimental animals.

[8] = tested on: carrageenin edema
Method: as §3, §4, §5
A carrageenin edema was induced by subplantar administration in rats of 0.1 ml 1% solution of carrageenin (polysaccharide prepared from Iceland or pearl moss).

[9] = tested on: ovalbumin edema; assay: Ovalbumin edema of rat foot; assay type: in vivo, rats; conditions: 1/10 LD50 intra-abdominal
Method: An ovalbumin edema was induced by subplantar administration in rats of egg albumin (0.1 ml per foot). The edema developed very intensely, i.e. reached the maximum magnitude (191%) as soon as 1 hour following the injection of ovalbumin, and completely disappeared by the end of the day.
The preparations under studies were administered in the given investigations in a dose corresponding to 1/10LD50 for the rats in the intra-abdominal administration.

[10] = Solubility; assay type: physicochemical
[11] = tested on: rabbits; assay: Acute toxicity in rabbits (LD50); conditions: rabbit, in vivo, 10080 min
Method: as §1, §2

[12] = tested on: rats; assay: in vivo; conditions: rat, 168 h
Method: as §1, §2

[13] = tested on: white mice; assay: in vivo; conditions: mouse, 168 h
Method: as §1, §2

[14] = rat, in vivo, ip, hydrochloride
[15] = read-out: Percentage of inhibition (cotton granuloma)

For `COc1ccc2c(c1)c(CC(=O)O)c(C)n2C(=O)c1ccc(Cl)cc1` [Indomethacin, 1-(para-chlorobenzoyl)5-methoxy-2-methyl-indole-3-acetic acid], the “Antipyretic effect (maximum decrease in temperature)” value ([1]; 70% of LD50) was 0.7 °C.

In the case of `O=C(O)c1ccccc1Nc1ccn2c(=O)c3ccccc3nc2n1`, the LD50 at 168 h [2] is reported as 1750 mg/kg, the LD50 at 168 h [3] is reported as 5000 mg/kg and the LD50 at 168 h ([4]; mouse, ip) is reported as 1050 mg/kg. For the same compound, the LD50 at 168 h ([4]; mouse, po) was 3400 mg/kg, the LD50 at 168 h ([4]; rat, ip) was 980 mg/kg and the LD50 at 168 h ([4]; rat, po) was 3800 mg/kg.

With `Cc1cccc(Nc2ccccc2C(=O)O)c1C` [Mephenamine acid, N--(2,3-dimethylphenyl) anthranilic acid] the “Increase in latent period of pain reaction in mice” value (“Increase in latent period” below) ([5]; 3.5 mg/kg) was 18%, the “Increase in latent period” value ([5]; 7.0 mg/kg) was 36% and the “Increase in latent period” value ([5]; 15 mg/kg) was 43%. For the same compound, the “analgetic activity (in words)” value ([5]; contact-heat stimulation) was “possessed the most expressed analgetic effect”, the “Percentage of inhibition (formalin edema)” value ([6]; 9 mg/kg intra-abdominal) was 22% and the “Percentage of inhibition (formalin edema)” value ([6]; 18 mg/kg intra-abdominal) was 24%. For the same compound, the “Percentage of inhibition (formalin edema)” value ([6]; 36 mg/kg intra-abdominal) was 31%, the “Percentage of inhibition (formalin edema)” value ([6]; 72 mg/kg intra-abdominal) was 33% and the “other symptoms of inflammation (hyperemia, painfulness) and formation of necrotic foci” value [6] was “almost noncharacteristic”. For the same compound, the “Antipyretic effect (maximum decrease in temperature)” value ([1]; 70% of LD50) was 1.2 °C, the “antiproliferative effect (in words)” value ([7]; cotton granuloma) was “the most effective among the given preparations” and the “Percentage of inhibition (carrageenin edema)” value ([8]; 25 mg/kg intra-abdominal) was 33%. The “Percentage of inhibition (carrageenin edema)” value ([8]; 50 mg/kg intra-abdominal) was 44% and the “Percentage of inhibition (carrageenin edema)” value ([8]; 100 mg/kg intra-abdominal) was 50%.

In the case of `CCCCC1C(=O)N(c2ccccc2)N(c2ccccc2)C1=O` [Phenylbutazone, 1,2-diphenyl-4-butyl pyrazolidine-dion-3,5], the “Increase in latent period” value ([5]; 25 mg/kg) is reported as 8%, the “Increase in latent period” value ([5]; 50 mg/kg) is reported as 43% and the “Increase in latent period” value ([5]; 100 mg/kg) is reported as 92%. For the same compound, the “Percentage of inhibition (formalin edema)” value ([6]; 21 mg/kg intra-abdominal) was 17%, the “Percentage of inhibition (formalin edema)” value ([6]; 42 mg/kg intra-abdominal) was 40% and the “Percentage of inhibition (formalin edema)” value ([6]; 82 mg/kg intra-abdominal) was 51%. For the same compound, the “antiexudative / antiinflammatory effect in ovalbumin edema (in words)” value [9] was “did not produce antiedematic effect”, the “Percentage of inhibition (carrageenin edema)” value ([8]; 21 mg/kg intra-abdominal) was 27% and the “Percentage of inhibition (carrageenin edema)” value ([8]; 42 mg/kg intra-abdominal) was 44%. For the same compound, the “Percentage of inhibition (carrageenin edema)” value ([8]; 84 mg/kg intra-abdominal) was 51%.

Work on `COC(=O)c1ccccc1Nc1ccn2c(=O)c3ccccc3nc2n1` yielded an LD50 at 168 h ([4]; mouse, ip) of 1160 mg/kg.

With `CC(C)Cc1ccc(C(C)C(=O)O)cc1` (centres unmarked) [Bruphen, 2-(para-isobutylphenyl)-propionic acid] the “Antipyretic effect (maximum decrease in temperature)” value ([1]; 70% of LD50) was 1.3 °C.

In the case of `O=C(O)c1ccccc1Nc1ccn2c(=O)c3ccccc3nc2n1` [ethanol ammonium salt of 2-(o-carboxyphenylamino)-6H-pyrimid], the “solubility (in words)” value [10] is reported as “soluble in water”.

With `O=C(O)c1ccccc1Nc1ccn2c(=O)c3ccccc3nc2n1` [2-(o-carboxyphenylamino)6H-pyrimido(2,1-b)-quinazolone-6 hydrochloride] the LD50 ([11]; ip) was 1750 mg/kg, the LD50 ([11]; po, hydrochloride) was 500 mg/kg and the “Increase in latent period” value ([5]; 52 mg/kg, hydrochloride) was 31%. For the same compound, the “Increase in latent period” value ([5]; 105 mg/kg, hydrochloride) was 52%, the “Increase in latent period” value ([5]; 157 mg/kg, hydrochloride) was 62% and the “Therapeutic index (analgetic activity)” value ([5]; mouse, in vivo, hydrochloride) was 11.0. The “Percentage of inhibition (formalin edema)” value ([6]; 5 mg/kg intra-abdominal) was 31%, the “Percentage of inhibition (formalin edema)” value ([6]; 10 mg/kg intra-abdominal) was 50% and the “Percentage of inhibition (formalin edema)” value ([6]; 49 mg/kg intra-abdominal) was 57%. For the same compound, the “Percentage of inhibition (formalin edema)” value ([6]; 98 mg/kg intra-abdominal) was 71%, the “depression of formalin edema of a foot in the rat (in words)” value ([6]; comparison of preparations) was “the most actively depressed” and the “Therapeutic index (formalin edema)” value [6, 14] was 61.2. The “Antipyretic effect (maximum decrease in temperature)” value ([1]; 5% of LD50 (hydrochloride's dose not printed separately)) was 1.4 °C, the “Percentage of inhibition (cotton granuloma)” value ([7]; 48 mg/kg) was 18% and the “Percentage of inhibition (cotton granuloma)” value ([7]; 95 mg/kg) was 24%. For the same compound, the “Percentage of inhibition (cotton granuloma)” value ([7]; 190 mg/kg) was 52%, the “antiproliferative effect (in words)” value ([7]; cotton granuloma) was “the most effective among the given preparations” and the “pharmacotherapeutic width of effect relative to mephenamine acid, sodium salicylate, and phenylbutazone” value ([7]; cotton granuloma) was “three times”. The “Therapeutic index (cotton granuloma)” value ([7]; in vivo, hydrochloride) was 22.3, the LD50 ([12]; ip) was 980 mg/kg and the LD50 ([12]; po) was 3800 mg/kg. The LD50 ([13]; ip) was 1050 mg/kg, the LD50 ([13]; po) was 3400 mg/kg and the “Percentage of inhibition (carrageenin edema)” value ([8]; 25 mg/kg intra-abdominal) was 12%. For the same compound, the “Percentage of inhibition (carrageenin edema)” value ([8]; 49 mg/kg intra-abdominal) was 26%, the “Percentage of inhibition (carrageenin edema)” value ([8]; 98 mg/kg intra-abdominal) was 55% and the “Therapeutic index (carrageenin edema)” value [8, 14] was 10.9.

With `O=C(O)c1ccccc1O` [Sodium salicylate, 6-oxybenzoic acid, sodium salt] the “Increase in latent period” value ([5]; 32 mg/kg) was 28%, the “Increase in latent period” value ([5]; 65 mg/kg) was 38% and the “Increase in latent period” value ([5]; 130 mg/kg) was 59%. For the same compound, the “Therapeutic index (analgetic activity)” value ([5]; LD50/ED50, contact-heat stimulation) was 5.9, the “Percentage of inhibition (formalin edema)” value ([6]; 65 mg/kg intra-abdominal) was 14% and the “Percentage of inhibition (formalin edema)” value ([6]; 130 mg/kg intra-abdominal) was 24%. The “Percentage of inhibition (formalin edema)” value ([6]; 260 mg/kg intra-abdominal) was 41%, the “Therapeutic index (formalin edema)” value ([6]; LD50/ED50, intra-abdominal) was 1.8 and the “other symptoms of inflammation (hyperemia, painfulness) and formation of necrotic foci” value [6] was “almost noncharacteristic”. For the same compound, the “Therapeutic index (cotton granuloma)” value ([7]; LD50/ED50) was 7.27, the inhibition at 60 mg/kg [7, 15] was 8% and the inhibition at 80 mg/kg [7, 15] was 20%. The inhibition at 160 mg/kg [7, 15] was 36%, the inhibition at 240 mg/kg [7, 15] was 52% and the “Percentage of inhibition (carrageenin edema)” value ([8]; 65 mg/kg intra-abdominal) was 14%. The “Percentage of inhibition (carrageenin edema)” value ([8]; 90 mg/kg intra-abdominal) was 32%, the “Percentage of inhibition (carrageenin edema)” value ([8]; 130 mg/kg intra-abdominal) was 56% and the “Therapeutic index (carrageenin edema)” value ([8]; LD50/ED50, intra-abdominal) was 5.6.

With `CNC(=O)c1ccccc1Nc1ccn2c(=O)c3ccccc3nc2n1` [2-(o-methylcarbamidephenylamino)-6H-pyrimido(2,1-b)-quinazolone-6] the LD50 at 168 h ([4]; mouse, ip) was 3000 mg/kg.
